Experimental data as given in BindingDB's records for doi:10.1021/jm00080a021 (Notre-Dame Hospital Research, 1992).

Target: Ribonucleoside-diphosphate reductase large subunit R1 (Herpes simplex virus type 1)
Test: Inhibitory concentration against HSV-1 ribonucleotide reductase R1 protein binding

Compound	IC50
Ac-YAGTVINCL-OH [2-{2-[2-(2-{2-[2-(2-{2-[2-Acetylamino-3-(4-hydroxy-phenyl)-propionylamino]-propionylamino}-acetylamino)-3-hydroxy-butyrylamino]-3-methyl-butyrylamino}-3-methyl-pentanoylamino)-3-carbamoyl-propionylamino]-3-mercapto-propionylamino}-4-methyl-pentanoic acid]	> 1000 µM
CC[C@H](C)[C@H](NC(=O)[C@@H](NC(=O)[C@@H](NC(=O)CNC(=O)[C@H](C)NC(=O)[C@H](Cc1ccc(O)cc1)NC(C)=O)[C@@H](C)O)C(C)C)C(=O)N[C@@H](CO)C(=O)N[C@@H](CC(=O)O)C(=O)N[C@@H](CC(C)C)C(=O)O [2-{2-[2-(2-{2-[2-(2-{2-[2-Acetylamino-3-(4-hydroxy-phenyl)-propionylamino]-propionylamino}-acetylamino)-3-hydroxy-butyrylamino]-3-methyl-butyrylamino}-3-methyl-pentanoylamino)-3-hydroxy-propionylamino]-3-carboxy-propionylamino}-4-methyl-pentanoicacid]	395 µM
CC[C@H](C)[C@H](NC(=O)[C@@H](NC(=O)[C@@H](NC(=O)CNC(=O)[C@H](C)NC(=O)[C@H](Cc1ccc(O)cc1)NC(C)=O)[C@@H](C)O)C(C)C)C(=O)N[C@@H](CC(N)=O)C(=O)N[C@@H](CC(N)=O)C(=O)N[C@@H](CC(C)C)C(=O)O	640 µM

Second part, the compound after the results:

IC50	Compound
650 µM	CC[C@H](C)[C@H](NC(=O)[C@@H](NC(=O)[C@@H](NC(=O)CNC(=O)[C@H](C)NC(=O)[C@H](Cc1ccc(O)cc1)NC(C)=O)[C@@H](C)O)C(C)C)C(=O)N[C@@H](CC(N)=O)C(=O)N[C@@H](CCC(=O)O)C(=O)N[C@@H](CC(C)C)C(=O)O [2-{2-[2-(2-{2-[2-(2-{2-[2-Acetylamino-3-(4-hydroxy-phenyl)-propionylamino]-propionylamino}-acetylamino)-3-hydroxy-butyrylamino]-3-methyl-butyrylamino}-3-methyl-pentanoylamino)-3-carbamoyl-propionylamino]-4-carboxy-butyrylamino}-4-methyl-pentanoicacid]
> 1000 µM	Ac-YAGTVINSL-OH [2-{2-[2-(2-{2-[2-(2-{2-[2-Acetylamino-3-(4-hydroxy-phenyl)-propionylamino]-propionylamino}-acetylamino)-3-hydroxy-butyrylamino]-3-methyl-butyrylamino}-3-methyl-pentanoylamino)-3-carbamoyl-propionylamino]-3-hydroxy-propionylamino}-4-methyl-pentanoic acid]
> 1000 µM	CC(=O)N[C@@H](Cc1ccc(O)cc1)C(=O)N[C@@H](C)C(=O)NCC(=O)N[C@H](C(=O)N[C@H](C(=O)N[C@@H](C(=O)N[C@@H](CC(N)=O)C(=O)N[C@@H](CC(=O)O)C(=O)N[C@@H](CC(C)C)C(=O)O)C(C)C)C(C)C)[C@@H](C)O [2-{2-[2-(2-{2-[2-(2-{2-[2-Acetylamino-3-(4-hydroxy-phenyl)-propionylamino]-propionylamino}-acetylamino)-3-hydroxy-butyrylamino]-3-methyl-butyrylamino}-3-methyl-butyrylamino)-3-carbamoyl-propionylamino]-3-carboxy-propionylamino}-4-methyl-pentanoicacid]
